What was measured:
Test in all cases: PubChem AID 652108
Details in all cases: mouse tail flick latency, kappa agonist-induced antinociception
1 week = tested on: 1 week
24 hours = tested on: 24 hours
1 hour = tested on: 1 hour

## COC(=O)c1cc(Br)cnc1N1CCC(NC2CCCCC2)C(O)C1 (configuration not stated)
1 week
  tail flick latency: 12 s
1 week; baseline latency at 0 min
  tail flick latency: 3.47 s
1 week; latency at 30 min
  tail flick latency: 8.5 s
1 week; latency at 60 min
  tail flick latency: 3.25 s
24 hours
  tail flick latency: 13.4 s
24 hours; baseline latency at 0 min
  tail flick latency: 4.23 s
24 hours; latency at 30 min
  tail flick latency: 9.11 s
24 hours; latency at 60 min
  tail flick latency: 5.2 s
1 hour
  tail flick latency: 8.07 s
1 hour; baseline latency at 0 min
  tail flick latency: 4.68 s
1 hour; latency at 30 min
  tail flick latency: 6.04 s
1 hour; latency at 60 min
  tail flick latency: 4.2 s
